Test results as given in patent US20250257075A1, “MACROCYCLIC INHIBITORS OF KRAS FOR THE TREATMENT OF CANCER” (Hoffmann-La Roche Inc., priority 2022, published 2025).

What was measured:
[1] = test system: phosphorylation of ERK, KRAS G12C in NCI-H358 cells; experiment: pERK inhibition assay, G12C; assay type: cell-based, human; conditions: Homo sapiens; NCI-H358, 4 hours of incubation
Experimental: (§1) This assay is to measure the ability of test compounds in inhibiting the phosphorylation of ERK, the downstream signaling of KRAS G12C in NCI-H358 cells, KRAS G12D in AGS cells, and KRAS G12V in SW620. NCI-H358 (ATCC-CRL5807) cells, AGS (ATCC-CRL-1739) cells, SW620 (ATCC-CCL-227) cells were all grown and maintained using RPMI-1640 medium (Thermo Fisher Scientific) with 10% fetal bovine serum and 1% penicillin/streptomycin. On the day prior to compound addition, cells were plated in tissue culture-treated 96 well plates (Corning-3699) at a density of 30,000 cell/well, 20,000 cell/well, 30,000 cell/well for NCI-H358, AGS and SW620 respectively, and allowed for attachment overnight. Diluted compounds were then added in a final concentration of 0.5% DMSO. After 4 hours of incubation, the medium was removed, 100 μL of 4% formaldehyde was added, and the assay plates were incubated at room temperature for 20 minutes. The plates were then washed once with phosphate buffered saline (PBS), and permeabilized with 100 μL of chilled methanol for 10 minutes. Non-specific antibody binding to the plates was blocked using 50 μL 1×BSA blocking buffer (Thermo-37520, 10-fold dilution by Phosphate-Buffered Saline Tween (PBST) for at least 1 hour at room temperature.
(§2) The amount of phosphor-ERK was determined using an antibody specific for phosphorylated form of ERK. Primary antibody (pERK, CST-4370, Cell Signaling Technology) was diluted 1:300 in blocking buffer, with 50 μL aliquoted to each well, and incubated overnight at 4° C. Cells was washed five times for 5 minutes with PBST. Secondary antibody (HRP-linked anti-rabbit IgG, CST-7074, Cell Signaling Technology) was diluted 1:1000 in blocking buffer, and 50 μL was added to each well and incubated 1-2 hrs at room temperature. Cells was washed 5 times for 5 minutes with PBST, 100 μL TMB ELISA substrate (abcam-ab171523) were added and gently shake for 20 minutes. 50 μL stop solution (abcam-ab171529) were added, and then read the signal (OD450) by EnVision.
(§3) IC50 was determined by fitting a 4-parameter sigmoidal concentration response model.

[2] = test system: phosphorylation of ERK, KRAS G12D in AGS cells; experiment: pERK inhibition assay, G12D; assay type: cell-based, human; conditions: Homo sapiens, 4 hours of incubation
Experimental: as §1, §2, §3

[3] = test system: phosphorylation of ERK, KRAS G12V in SW620; experiment: pERK inhibition assay, G12V; assay type: cell-based, human; conditions: Homo sapiens, SW-620; SW620, 4 hours of incubation
Experimental: as §1, §2, §3

[4] = test system: NCI-H358 cells (KRAS G12C); experiment: Cell viability assay, G12C; assay type: cell-based, human; conditions: Homo sapiens; NCI-H358, 72 hrs, Cell Counting Kit-8
Experimental: (§4) The purpose of this cellular assay was to determine the effects of test compounds on the proliferation of human cancer cell lines NCI-H358 (ATCC-CRL5807) cells, AGS (ATCC-CRL-1739) cells, SW620 (ATCC-CCL-227) over a 3-day treatment period by quantifying the amount of NADPH present at endpoint using Cell Counting Kit-8.
(§5) Cells were seeded at 5,000 cells/well (NCI-H358), 2,000 cells/well (AGS) 2,000 cells/well (SW620) in 96-well assay plates (Corning-3699) and incubated overnight. On the day of the assay, diluted compounds were then added in a final concentration of 0.5% DMSO. After 72 hrs incubation, a tenth of the volume of cell counting kit 8 (Dnjindo-CK04) was added into each well. Read the signal (OD450 minus OD650) using EnVision after 2 hrs incubation. IC50 was determined by fitting a 4-parameter sigmoidal concentration response model.

AGS cells (KRAS G12D) = experiment: Cell viability assay, G12D; assay type: cell-based, human; conditions: Homo sapiens, 72 hrs, Cell Counting Kit-8
Experimental: as §4, §5

SW620 cells (KRAS G12V) = experiment: Cell viability assay, G12V; assay type: cell-based, human; conditions: Homo sapiens, SW-620; SW620, 72 hrs, Cell Counting Kit-8
Experimental: as §4, §5

KRAS G12C-BRAF complex = molecular target: T1, KRAS G12C-BRAF complex (Homo sapiens, UniProt P01116+P62937, G12C); experiment: KRAS G12C-BRAF NanoBit assay in HEK293 cells; assay type: cell-based; conditions: HEK293 stable cell pool, 3 hours of incubation
T1 construct: expressed in transfected cells
T1 sequence (P01116 1-188 isoform P01116-2 G12C): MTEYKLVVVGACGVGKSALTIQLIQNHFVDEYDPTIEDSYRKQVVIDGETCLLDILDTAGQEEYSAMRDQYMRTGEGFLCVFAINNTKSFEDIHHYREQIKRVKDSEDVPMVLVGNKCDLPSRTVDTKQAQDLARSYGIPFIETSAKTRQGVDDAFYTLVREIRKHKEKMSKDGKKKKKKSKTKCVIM
T1 sequence (P62937 whole entry): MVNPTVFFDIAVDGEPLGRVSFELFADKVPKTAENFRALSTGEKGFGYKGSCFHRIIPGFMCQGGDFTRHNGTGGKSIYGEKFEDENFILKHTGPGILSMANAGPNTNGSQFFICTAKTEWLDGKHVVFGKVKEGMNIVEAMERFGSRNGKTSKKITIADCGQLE
Experimental: This assay is to measure the ability of tested compounds in disruption of the KRAS G12C-BRAF complex at the cellular level, we established the NanoBit cellular assay in mammalian HEK293 (ATCC) cells. HEK293 cells were grown and maintained using DMEM medium (Thermo Fisher Scientific) with 10% fetal bovine serum and 1% penicillin/streptomycin. Both KRAS G12C and BRAF RBD were cloned into the NanoBit vectors ([…] vectors system, Promega) with the orientations SmBit-KRAS G12C and BRAF RBD-LgBit, respectively, and co-transfected into HEK293 cells. Cells were then selected with 100 μg/mL Hygromycin B (10687010, Thermo Fisher) and Blasticidin (5 μg/mL) for 4 weeks to get the stable cell pool. On the day of the assay, 75 nL of compound solution was presented in a 384-well assay plate as a 16-point 3-fold dilution starting from a final concentration of 30 μM in DMSO. Then cells were seeded at 10,000 cells/25 μL/well in a 384-well plate. After 3 hours of incubation, 6 μL of volume of Nano-Glo® Live Cell Substrate (Promega) was added into each well. Monitor luminescence using ultra384 model in Envision at 20 minutes. Compounds that facilitate disruption of the KRAS G12C-BRAF RBD complex were identified as those eliciting a decrease of luminescence relative to DMSO control wells.

Structure (SMILES)	IC50 [1] [µM]	IC50 [2] [µM]	IC50 [3] [µM]	IC50 [4] [µM]	IC50 (AGS cells (KRAS G12D)) [µM]	IC50 (SW620 cells (KRAS G12V)) [µM]	IC50 (KRAS G12C-BRAF complex) [µM]
CCn1c(-c2cc(N3CCN(CC(F)(F)F)CC3)cnc2[C@H](C)OC)c2c3cc(c(F)cc31)-c1csc(n1)C[C@H](NC(=O)[C@H](C(C)C)N(C)C(=O)N1CC(C#CC(F)(F)F)C1)C(=O)N1CCC[C@H](N1)C(=O)OCC(C)(C)C2 (atropisomer, axis not shown; (M)) [Example 15, N-[(1S)-1-[[(7S,13S)-21-ethyl-24-fluoro-(20M)-20-[2-[(1S)-1-methoxyethyl]-5-[4-(2,2,2-trifluoroethyl)piperazin-1-yl]-3-pyridyl]-17,17-dimethyl-8,14-dioxo-15-oxa-4-thia-9,21,27,28-tetrazapentacyclo[17.5.2.1^2,5.1^9,13.0^22,26]octacosa-1(25),2,5(28),19,22(26),23-hexaen-7-yl]carbamoyl]-2-methyl-propyl]-N-methyl-3-(3,3,3-trifluoroprop-1-ynyl)azetidine-1-carboxamide]	0.02	> 10	0.021				
CO[C@@H](C)c1ncc(N2CCN(C)CC2)cc1-c1c2c3cc(c(F)cc3n1CC(F)(F)F)-c1csc(n1)C[C@H](NC(=O)[C@H](C(C)C)N(C)C(=O)[C@H]1C[C@@H](C#Cc3nccc(C(F)(F)F)n3)C1)C(=O)N1CCC[C@H](N1)C(=O)OCC(C)(C)C2 (atropisomer, axis not shown; (M)) [Example 16, cis-N-[(1S)-1-[[(7S,13S)-24-fluoro-(20M)-20-[2-[(1S)-1-methoxyethyl]-5-(4-methylpiperazin-1-yl)-3-pyridyl]-17,17-dimethyl-8,14-dioxo-21-(2,2,2-trifluoroethyl)-15-oxa-4-thia-9,21,27,28-tetrazapentacyclo[17.5.2.1^2,5.1^9,13.0^22,26]octacosa-1(25),2,5(28),19,22(26),23-hexaen-7-yl]carbamoyl]-2-methyl-propyl]-N-methyl-3-[2-[4-(trifluoromethyl)pyrimidin-2-yl]ethynyl]cyclobutanecarboxamide]	0.021	> 10	0.031	0.011	0.743	0.237	0.209
CO[C@@H](C)c1ncc(N2CCN(CC(F)(F)F)CC2)cc1-c1c2c3cc(c(F)cc3n1CC(F)(F)F)-c1csc(n1)C[C@H](NC(=O)[C@H](C(C)C)N(C)C(=O)N1CC(C#CC(F)(F)F)C1)C(=O)N1CCC[C@H](N1)C(=O)OCC(C)(C)C2 (atropisomer, axis not shown; (M)) [Example 18, N-[(1S)-1-[[(7S,13S)-24-fluoro-(20M)-20-[2-[(1S)-1-methoxyethyl]-5-[4-(2,2,2-trifluoroethyl)piperazin-1-yl]-3-pyridyl]-17,17-dimethyl-8,14-dioxo-21-(2,2,2-trifluoroethyl)-15-oxa-4-thia-9,21,27,28-tetrazapentacyclo[17.5.2.1^2,5.1^9,13.0^22,26]octacosa-1(25),2,5(28),19,22(26),23-hexaen-7-yl]carbamoyl]-2-methyl-propyl]-N-methyl-3-(3,3,3-trifluoroprop-1-ynyl)azetidine-1-carboxamide]	0.051	> 10	0.048	0.006	> 10	> 10	0.24
CCn1c(-c2cc(N3CCOCC3)cnc2[C@H](C)OC)c2c3cc(c(F)cc31)-c1csc(n1)C[C@H](NC(=O)[C@H](C(C)C)N(C)C(=O)[C@H]1C[C@@H](C#Cc3nccc(C(F)(F)F)n3)C1)C(=O)N1CCC[C@H](N1)C(=O)OCC(C)(C)C2 (atropisomer, axis not shown; (M)) [Example 21, cis-N-[(1S)-1-[[(7S,13S)-21-ethyl-24-fluoro-(20M)-20-[2-[(1S)-1-methoxyethyl]-5-morpholino-3-pyridyl]-17,17-dimethyl-8,14-dioxo-15-oxa-4-thia-9,21,27,28-tetrazapentacyclo[17.5.2.1^2,5.1^9,13.0^22,26]octacosa-1(25),2,5(28),19,22(26),23-hexaen-7-yl]carbamoyl]-2-methyl-propyl]-N-methyl-3-[2-[4-(trifluoromethyl)pyrimidin-2-yl]ethynyl]cyclobutanecarboxamide]	0.019	> 10	0.076	0.02	0.231	0.222	0.085
CO[C@@H](C)c1ncc(N2CCOCC2)cc1-c1c2c3cc(c(F)cc3n1CC(F)(F)F)-c1csc(n1)C[C@H](NC(=O)[C@H](C(C)C)N(C)C(=O)[C@H]1C[C@@H](C#CC(F)(F)F)C1)C(=O)N1CCC[C@H](N1)C(=O)OCC(C)(C)C2 (atropisomer, axis not shown; (M)) [Example 22, cis-N-[(1S)-1-[[(7S,13S)-24-fluoro-(20M)-20-[2-[(1S)-1-methoxyethyl]-5-morpholino-3-pyridyl]-17,17-dimethyl-8,14-dioxo-21-(2,2,2-trifluoroethyl)-15-oxa-4-thia-9,21,27,28-tetrazapentacyclo[17.5.2.1^2,5.1^9,13.0^22,26]octacosa-1(25),2,5(28),19,22(26),23-hexaen-7-yl]carbamoyl]-2-methyl-propyl]-N-methyl-3-(3,3,3-trifluoroprop-1-ynyl)cyclobutanecarboxamide]	0.013	0.172	0.078	0.012	> 10	0.152	0.036
CCn1c(-c2cc(N3CCOCC3)cnc2[C@H](C)OC)c2c3cc(c(F)cc31)-c1csc(n1)C[C@H](NC(=O)[C@H](C(C)C)N(C)C(=O)N1CC(C#CC(F)(F)F)C1)C(=O)N1CCCC(N1)C(=O)OCC(C)(C)C2 (stereo partly drawn) [Example 20, N-[(1S)-1-[[(7S,13S)-21-ethyl-24-fluoro-(20M)-20-[2-[(1S)-1-methoxyethyl]-5-morpholino-3-pyridyl]-17,17-dimethyl-8,14-dioxo-15-oxa-4-thia-9,21,27,28-tetrazapentacyclo[17.5.2.1^2,5.1^9,13.0^22,26]octacosa-1(25),2,5(28),19,22(26),23-hexaen-7-yl]carbamoyl]-2-methyl-propyl]-N-methyl-3-(3,3,3-trifluoroprop-1-ynyl)azetidine-1-carboxamide]	0.093	2.51	0.096	0.025	> 10	0.119	0.084
